# Experimental data published in paper PMC3292765 (Chemistry & biology, 2012).
# Where two headings read alike, the source gives them in different places.
# Columns and labels:
# [1] = target: T1, p67^phox (Homo sapiens, UniProt P19878); assay: microscale thermophoresis with labeled recombinant protein; type: binding
# T1 sequence (P19878 1-212): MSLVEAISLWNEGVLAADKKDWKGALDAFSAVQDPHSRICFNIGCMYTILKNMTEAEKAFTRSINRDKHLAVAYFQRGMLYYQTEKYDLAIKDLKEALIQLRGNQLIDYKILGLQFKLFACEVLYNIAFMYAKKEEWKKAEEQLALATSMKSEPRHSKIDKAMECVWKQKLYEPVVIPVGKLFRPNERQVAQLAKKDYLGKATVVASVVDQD
# [2] = target: T1, p67^phox; assay: as above; type: binding; remark: listed apart in the source
Compound,Kd [1] [nM],Kd [2] [nM]
"O=[N+]([O-])c1cccc(C2Nc3ccc([N+](=O)[O-])cc3C3C=CCC32)c1 (centres unmarked) [compound 16, Phox-I2]",~150,–
Phox-I1,–,~100
